According to patent publication US20260265220A1, “GALPHA12 INHIBITORS AND METHODS USING SAME” (RUTGERS, THE STATE UNIVERSITY OF NEW JERSEY, priority 2022, published 2026):
“And” between values parts separate entries of the source, which are not always exact repeats. Equal values may be shown once. “Also recorded” adds a separate entry of the source. Read-outs that look alike come from different tables or passages of the source.

What was measured:
Gα12 = target: T1, Gα12 (Homo sapiens, UniProt Q03113); experiment: Gα12 luciferase reporter assay in hTERT-SRE immortalized airway smooth muscle cells, carbachol stimulated; assay type: cell-based; conditions: carbachol (CCh) stimulated, dose response
T1 sequence (Q03113 1-381): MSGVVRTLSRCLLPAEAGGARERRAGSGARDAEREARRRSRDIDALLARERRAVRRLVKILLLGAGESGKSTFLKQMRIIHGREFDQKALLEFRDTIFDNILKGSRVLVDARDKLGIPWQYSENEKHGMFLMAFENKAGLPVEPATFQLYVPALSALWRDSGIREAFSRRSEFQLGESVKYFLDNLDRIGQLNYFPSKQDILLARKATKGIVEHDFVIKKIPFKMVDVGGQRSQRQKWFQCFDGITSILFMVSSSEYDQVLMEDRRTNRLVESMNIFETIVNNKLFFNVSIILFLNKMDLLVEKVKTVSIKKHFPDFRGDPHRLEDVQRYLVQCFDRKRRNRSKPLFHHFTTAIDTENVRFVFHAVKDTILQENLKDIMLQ
Excerpt: FIGS. 1A-1C show an experimental approach to the identification of Gα12 modulators using hTERT-SRE human telomerase reverse transcriptase immortalized airway smooth muscle cells. FIG. 1A: provides a schematic representation of Gα12-activated luciferase reporter. […] FIG. 1C: provides a detailed schematic showing the downstream effects of Gα12/13 activation and/or inhibition, wherein serum response element (SRE) may be detected by a luciferase assay, and pAKT and pMLC may be detected by Western blotting. A Gα12 luciferase reporter assay was used to evaluate the potential of analogues of compound 1 as bronchodilators (FIGS. 2A-2C), wherein the assay utilized hTERT-SRE telomerase reverse transcriptase immortalized airway smooth muscle cells. In certain embodiments, the Gα12 pathway is activated with carbachol (CCh), resulting in downstream transcription of a […]/luciferase fusion protein (FIG. 1A), and consequently, a fluorescence signal (FIG. 1B). In certain embodiments, detection of a decrease in observed fluorescent signal indicates inhibition of Gα12. Further, activation of the Gα12 pathway results in elevated levels of phosphorylated AKT (pAKT) and MLC (pMLC) (FIG. 1C). In certain embodiments, detection of a decrease in pAKT and/or pMLC indicates inhibition of Gα12.

[1] = system: MLC phosphorylation (pMLC); experiment: Immunoblot analysis of myosin light chain phosphorylation (pMLC) in airway smooth muscle cells; assay type: cell-based, human; conditions: for agonist specificity of the effect on pMLC activation: carbachol versus histamine; for potency and efficacy on carbachol-induced pMLC activation: relative to the parent compound 1 (BDF)
Procedure: (§1) Compounds 1-3 were evaluated for inhibition of AKT and MLC phosphorylation. As described elsewhere herein, phosphorylation of AKT and/or MLC can occur with activation of the Gα12 pathway. Accordingly, in certain embodiments, detection of a decrease in pAKT and/or pMLC indicates inhibition of Gα12.
(§2) The immunoblot analysis of phosphorylation of myosin light chain (pMLC) was used as a surrogate for ASM contraction. In parallel, phosphorylation of AKT was analogously assessed. AKT is a downstream substrate for phosphoinositide 3-kinase (PI3K) activity, can modulate the activation of the Gα12 pathway in primary human airway smooth muscle cells. These cells are the pivotal cells regulating bronchomotor tone in asthma and chronic obstructive pulmonary disease (COPD) which is emphysema or chronic bronchitis.
(§3) The analogues described herein were further assessed for potency and efficacy in inhibiting AKT and pMLC phosphorylation induced by contractile agonists, carbachol, or histamine. These contractile agonists are pivotal in causing airway smooth muscle contraction and airway obstruction in asthma and COPD.

[2] = system: AKT phosphorylation (pAKT); experiment: Immunoblot analysis of AKT phosphorylation (pAKT) in airway smooth muscle cells; assay type: cell-based, human
Procedure: as §1, §2, §3

ATR/ATRIP(h) = target: T2, ATR/ATRIP(h) (Homo sapiens, UniProt Q13535); experiment: Eurofins in vitro kinase activity assay; assay type: biochemical; conditions: read-out: ATR/ATRIP(h) kinase activity (human kinase inhibition data)
T2 construct: purchased Eurofins
Procedure: (§4) Using the Eurofins™ platform, a kinase activity assay was performed to identify human kinases inhibited by compound 1. To determine the effects of the compound on kinase activity, varying concentrations of compound 1 (1, 10 and 100 μM) were used with one technical replicate in a standard in vitro kinase activation assay.
(§5) This platform was used to determine the effects of compound 1 on the activity of 113 unique human kinases. Thresholds for kinase activity of interest was set at less than or equal to 60% […] (i.e., for antagonists) or enhanced activity at or above 140% (i.e., for agonists). Further, the validity of the results were confirmed by the occurrence of a dose-dependent response.

Fms(h) = target: T3, Fms(h) (Homo sapiens, UniProt P07333); experiment: Eurofins in vitro kinase activity assay; assay type: biochemical; conditions: read-out: Fms(h) kinase activity (human kinase inhibition data)
T3 construct: purchased Eurofins
T3 sequence (P07333 20-972): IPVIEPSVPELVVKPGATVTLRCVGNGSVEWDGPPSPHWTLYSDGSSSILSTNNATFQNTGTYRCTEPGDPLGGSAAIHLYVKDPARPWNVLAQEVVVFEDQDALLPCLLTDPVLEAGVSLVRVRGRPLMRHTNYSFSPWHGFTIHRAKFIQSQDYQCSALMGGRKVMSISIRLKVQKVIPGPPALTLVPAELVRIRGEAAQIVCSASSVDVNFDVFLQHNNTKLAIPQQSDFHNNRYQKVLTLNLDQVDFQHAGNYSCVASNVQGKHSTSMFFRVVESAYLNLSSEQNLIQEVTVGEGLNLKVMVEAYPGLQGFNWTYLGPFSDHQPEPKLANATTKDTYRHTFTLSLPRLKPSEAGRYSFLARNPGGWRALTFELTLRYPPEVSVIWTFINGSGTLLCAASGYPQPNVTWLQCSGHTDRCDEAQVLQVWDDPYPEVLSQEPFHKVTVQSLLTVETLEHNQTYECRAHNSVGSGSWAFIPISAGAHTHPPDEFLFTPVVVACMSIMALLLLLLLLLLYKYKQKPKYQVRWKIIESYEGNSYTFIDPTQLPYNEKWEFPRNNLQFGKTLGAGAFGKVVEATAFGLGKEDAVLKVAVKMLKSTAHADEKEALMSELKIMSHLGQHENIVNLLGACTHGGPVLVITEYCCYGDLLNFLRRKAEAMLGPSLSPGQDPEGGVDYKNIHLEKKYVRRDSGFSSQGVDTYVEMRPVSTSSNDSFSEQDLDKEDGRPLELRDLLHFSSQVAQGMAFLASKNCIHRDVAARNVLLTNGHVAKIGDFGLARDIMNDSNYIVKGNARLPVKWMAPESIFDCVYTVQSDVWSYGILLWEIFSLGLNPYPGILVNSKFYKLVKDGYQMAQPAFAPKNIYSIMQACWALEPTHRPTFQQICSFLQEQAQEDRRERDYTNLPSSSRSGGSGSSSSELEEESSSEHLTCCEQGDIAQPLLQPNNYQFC
Procedure: as §4, §5

IGF-1R(h) = target: T4, IGF-1R(h) (Homo sapiens, UniProt P08069); experiment: Eurofins in vitro kinase activity assay; assay type: biochemical; conditions: read-out: IGF-1R(h) kinase activity (human kinase inhibition data)
T4 construct: purchased Eurofins
T4 sequence (P08069 31-1367): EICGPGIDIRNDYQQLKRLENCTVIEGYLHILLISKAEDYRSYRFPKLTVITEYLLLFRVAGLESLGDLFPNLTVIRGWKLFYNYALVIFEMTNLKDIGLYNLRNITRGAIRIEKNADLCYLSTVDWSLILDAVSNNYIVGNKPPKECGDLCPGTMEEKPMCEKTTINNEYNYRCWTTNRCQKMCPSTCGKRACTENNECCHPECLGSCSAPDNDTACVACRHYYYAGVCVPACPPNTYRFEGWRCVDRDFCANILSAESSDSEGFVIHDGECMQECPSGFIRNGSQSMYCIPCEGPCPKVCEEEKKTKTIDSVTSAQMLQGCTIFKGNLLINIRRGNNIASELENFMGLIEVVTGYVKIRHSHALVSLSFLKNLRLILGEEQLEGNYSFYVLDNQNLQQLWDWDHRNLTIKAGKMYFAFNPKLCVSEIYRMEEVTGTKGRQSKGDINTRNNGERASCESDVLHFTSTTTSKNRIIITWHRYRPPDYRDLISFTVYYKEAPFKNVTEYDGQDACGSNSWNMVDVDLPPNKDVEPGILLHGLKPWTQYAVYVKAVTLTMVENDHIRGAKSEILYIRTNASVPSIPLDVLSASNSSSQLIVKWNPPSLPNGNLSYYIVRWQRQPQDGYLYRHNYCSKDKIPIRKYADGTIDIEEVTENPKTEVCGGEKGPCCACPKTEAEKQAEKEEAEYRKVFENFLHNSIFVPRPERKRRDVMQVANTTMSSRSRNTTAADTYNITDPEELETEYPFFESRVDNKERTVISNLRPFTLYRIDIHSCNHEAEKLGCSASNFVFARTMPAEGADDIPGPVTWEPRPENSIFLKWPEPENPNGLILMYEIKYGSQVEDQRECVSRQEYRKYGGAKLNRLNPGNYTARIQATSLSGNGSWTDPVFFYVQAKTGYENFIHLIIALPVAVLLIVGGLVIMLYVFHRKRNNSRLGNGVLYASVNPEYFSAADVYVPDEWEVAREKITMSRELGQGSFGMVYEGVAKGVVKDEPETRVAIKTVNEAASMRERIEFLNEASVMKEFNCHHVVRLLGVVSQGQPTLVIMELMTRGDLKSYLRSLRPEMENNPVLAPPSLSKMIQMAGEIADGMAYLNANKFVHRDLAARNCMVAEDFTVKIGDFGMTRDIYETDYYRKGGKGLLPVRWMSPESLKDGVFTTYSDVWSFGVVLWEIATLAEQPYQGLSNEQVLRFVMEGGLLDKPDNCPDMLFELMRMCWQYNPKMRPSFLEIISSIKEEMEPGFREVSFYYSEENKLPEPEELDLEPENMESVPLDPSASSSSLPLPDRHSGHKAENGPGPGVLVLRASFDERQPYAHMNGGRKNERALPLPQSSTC
Procedure: as §4, §5

MAPKAP-K2(h) = target: T5, MAPKAP-K2(h) (Homo sapiens, UniProt P49137); experiment: Eurofins in vitro kinase activity assay; assay type: biochemical
T5 construct: purchased Eurofins
Procedure: as §4, §5

PI3Kδ = target: T6, PI3Kδ (Homo sapiens, UniProt O00329); experiment: Eurofins in vitro kinase activity assay; assay type: biochemical
T6 construct: purchased Eurofins
T6 sequence (O00329 whole entry): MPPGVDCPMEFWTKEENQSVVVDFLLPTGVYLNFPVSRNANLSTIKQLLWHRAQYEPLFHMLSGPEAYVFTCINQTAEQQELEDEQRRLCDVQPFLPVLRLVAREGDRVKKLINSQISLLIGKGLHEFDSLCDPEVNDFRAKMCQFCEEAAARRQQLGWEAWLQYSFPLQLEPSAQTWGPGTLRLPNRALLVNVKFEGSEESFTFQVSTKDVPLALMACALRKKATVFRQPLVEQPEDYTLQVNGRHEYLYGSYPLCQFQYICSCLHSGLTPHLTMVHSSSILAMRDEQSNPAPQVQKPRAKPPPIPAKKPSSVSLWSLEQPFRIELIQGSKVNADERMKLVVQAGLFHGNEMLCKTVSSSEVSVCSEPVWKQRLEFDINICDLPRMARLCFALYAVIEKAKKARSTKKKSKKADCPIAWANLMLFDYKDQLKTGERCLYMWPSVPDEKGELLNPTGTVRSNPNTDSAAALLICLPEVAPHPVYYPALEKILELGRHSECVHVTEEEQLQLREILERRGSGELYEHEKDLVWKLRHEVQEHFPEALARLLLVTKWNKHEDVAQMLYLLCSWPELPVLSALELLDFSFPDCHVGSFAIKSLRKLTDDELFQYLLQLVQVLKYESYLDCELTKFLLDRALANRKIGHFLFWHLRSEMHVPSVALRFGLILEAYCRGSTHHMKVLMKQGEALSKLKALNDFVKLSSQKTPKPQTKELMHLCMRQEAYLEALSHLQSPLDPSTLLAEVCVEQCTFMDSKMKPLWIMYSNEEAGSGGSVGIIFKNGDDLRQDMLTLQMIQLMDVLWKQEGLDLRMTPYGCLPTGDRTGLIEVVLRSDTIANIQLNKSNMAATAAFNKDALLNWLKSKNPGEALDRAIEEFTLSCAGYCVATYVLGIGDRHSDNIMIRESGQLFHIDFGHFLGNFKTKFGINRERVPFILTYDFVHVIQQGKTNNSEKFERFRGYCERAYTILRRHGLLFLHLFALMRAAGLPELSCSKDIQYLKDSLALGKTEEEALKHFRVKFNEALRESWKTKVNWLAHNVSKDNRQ
T6 sequence (P27986 whole entry partner): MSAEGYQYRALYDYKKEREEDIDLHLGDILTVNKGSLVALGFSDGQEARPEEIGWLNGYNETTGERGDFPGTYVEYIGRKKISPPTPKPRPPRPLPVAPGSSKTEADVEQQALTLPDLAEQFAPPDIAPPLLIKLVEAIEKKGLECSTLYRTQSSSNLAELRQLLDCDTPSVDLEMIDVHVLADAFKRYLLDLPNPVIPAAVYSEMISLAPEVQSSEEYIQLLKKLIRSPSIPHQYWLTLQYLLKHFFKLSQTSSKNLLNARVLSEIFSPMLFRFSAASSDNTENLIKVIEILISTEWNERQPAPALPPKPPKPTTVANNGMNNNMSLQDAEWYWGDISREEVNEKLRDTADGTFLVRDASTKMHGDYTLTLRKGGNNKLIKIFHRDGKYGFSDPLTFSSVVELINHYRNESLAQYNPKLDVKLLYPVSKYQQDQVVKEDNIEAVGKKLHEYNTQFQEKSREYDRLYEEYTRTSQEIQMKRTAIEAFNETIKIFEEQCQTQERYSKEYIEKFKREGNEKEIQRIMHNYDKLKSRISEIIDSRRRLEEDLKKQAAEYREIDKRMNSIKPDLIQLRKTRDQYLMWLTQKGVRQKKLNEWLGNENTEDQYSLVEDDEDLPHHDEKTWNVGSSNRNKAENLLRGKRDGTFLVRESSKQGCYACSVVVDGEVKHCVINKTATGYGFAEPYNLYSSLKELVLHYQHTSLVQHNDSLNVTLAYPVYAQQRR
Procedure: as §4, §5

PRAK(h)/MAPKAPK5 = target: T7, PRAK(h)/MAPKAPK5 (Homo sapiens, UniProt Q8IW41); experiment: Eurofins in vitro kinase activity assay; assay type: biochemical
T7 construct: purchased Eurofins
T7 sequence (Q8IW41 1-473): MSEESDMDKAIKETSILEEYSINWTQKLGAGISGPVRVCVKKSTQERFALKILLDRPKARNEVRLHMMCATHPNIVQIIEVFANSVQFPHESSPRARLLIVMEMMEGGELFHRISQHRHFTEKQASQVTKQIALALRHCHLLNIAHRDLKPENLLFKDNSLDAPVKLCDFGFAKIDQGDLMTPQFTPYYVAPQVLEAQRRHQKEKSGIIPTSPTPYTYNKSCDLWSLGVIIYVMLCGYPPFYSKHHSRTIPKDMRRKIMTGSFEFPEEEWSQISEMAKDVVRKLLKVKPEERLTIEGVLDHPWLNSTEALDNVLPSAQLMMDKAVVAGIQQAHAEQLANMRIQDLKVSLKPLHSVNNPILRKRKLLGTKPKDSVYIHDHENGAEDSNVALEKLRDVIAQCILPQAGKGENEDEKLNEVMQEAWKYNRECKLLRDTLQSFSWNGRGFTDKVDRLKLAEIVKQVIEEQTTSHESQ
Procedure: as §4, §5

TrkA(h) = target: T8, TrkA(h) (Homo sapiens, UniProt P04629); experiment: Eurofins in vitro kinase activity assay; assay type: biochemical; conditions: read-out: TrkA(h) kinase activity (human kinase inhibition data)
T8 construct: purchased Eurofins
T8 sequence (P04629 33-796): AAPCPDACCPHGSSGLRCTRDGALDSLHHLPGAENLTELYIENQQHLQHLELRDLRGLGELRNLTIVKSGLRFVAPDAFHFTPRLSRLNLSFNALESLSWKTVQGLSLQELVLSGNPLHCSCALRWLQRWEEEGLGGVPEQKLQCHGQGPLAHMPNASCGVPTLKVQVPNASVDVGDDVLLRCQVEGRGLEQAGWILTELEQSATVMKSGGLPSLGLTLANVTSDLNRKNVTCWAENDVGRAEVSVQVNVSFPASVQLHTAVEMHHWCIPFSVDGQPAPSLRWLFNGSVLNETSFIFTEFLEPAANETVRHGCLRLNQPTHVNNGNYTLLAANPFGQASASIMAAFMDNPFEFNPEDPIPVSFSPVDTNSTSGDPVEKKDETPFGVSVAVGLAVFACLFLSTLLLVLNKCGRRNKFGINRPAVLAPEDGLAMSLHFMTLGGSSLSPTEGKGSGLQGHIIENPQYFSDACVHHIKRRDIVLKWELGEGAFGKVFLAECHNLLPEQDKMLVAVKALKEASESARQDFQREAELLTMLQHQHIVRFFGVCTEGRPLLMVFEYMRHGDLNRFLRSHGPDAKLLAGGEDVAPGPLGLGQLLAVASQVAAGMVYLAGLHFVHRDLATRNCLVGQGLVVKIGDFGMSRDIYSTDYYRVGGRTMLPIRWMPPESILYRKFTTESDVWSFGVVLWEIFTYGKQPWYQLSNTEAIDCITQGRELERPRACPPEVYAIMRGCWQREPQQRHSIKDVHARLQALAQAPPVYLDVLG
Procedure: as §4, §5

mTOR(h) = target: T9, mTOR(h) (Homo sapiens, UniProt P42345); experiment: Eurofins in vitro kinase activity assay; assay type: biochemical; conditions: read-out: mTOR(h) kinase activity (human kinase inhibition data)
T9 construct: purchased Eurofins
Procedure: as §4, §5

113 unique human kinases = experiment: Eurofins kinase activity panel; assay type: biochemical; conditions: 1, 10 and 100 μM
Procedure: as §4, §5

[3] = compound at 100 μM (FIGS. 4A-4B)
[4] = compound at 100 μM (FIGS. 4C-4D)

Compound: CC(C)(NC(=O)Cc1ccccc1F)C(=O)N1CCOCC(Cc2cccc3ccncc23)C1 (centres unmarked) [BDH, 2-(2-fluorophenyl)-N-(1-(6-(isoquinolin-8-ylmethyl)-1,4-oxazepan-4-yl)-2-methyl-1-oxopropan-2-yl)acetamide, reference compound]
- modulation of Gα12 luciferase reporter signal (agonist/antagonist) (Gα12): dose-dependent activation

Compound: Cc1ccc(Cc2ccc(C3CN(C(=O)c4cnc(C)cn4)CCO3)nc2)cc1 (centres unmarked) [Compound 2, (2-(5-(4-methylbenzyl)pyridin-2-yl)morpholino)(5-methylpyrazin-2-yl)methanone]
- modulation of Gα12 luciferase reporter signal (agonist/antagonist) (Gα12): Gα12 antagonists
- agonist specificity of the effect on pMLC activation [1]: specific for carbachol rather than histamine
- potency and efficacy on carbachol-induced pMLC activation [1]: improved potency and efficacy

Compound: CCN1CCC(CC(=O)N2CCOC(c3ccc(-c4cccc(OC)c4)cn3)C2)CC1 (centres unmarked) [Compound 3, 2-(1-ethylpiperidin-4-yl)-1-(2-(5-(3-methoxyphenyl)pyridin-2-yl)morpholino)ethan-1-one]
- modulation of Gα12 luciferase reporter signal (agonist/antagonist) (Gα12): Gα12 antagonists
- pAKT ([2]; compound at 10 μM (FIGS. 4A-4B)): decrease; also recorded: significantly decreased
- pAKT [2, 3]: decrease; also recorded: significantly decreased
- agonist specificity of the effect on pMLC activation [1]: specific for carbachol rather than histamine
- pMLC ([1]; compound at 10 μM (FIGS. 4C-4D)): decrease; also recorded: significantly decreased
- pMLC [1, 4]: decrease; also recorded: significantly decreased
- potency and efficacy on carbachol-induced pMLC activation [1]: improved potency and efficacy

Compound: FC(F)(F)c1cccc(Cc2ccc(C3CN(Cc4cccnc4)CCO3)nc2)c1 (centres unmarked) [Compound 5, 4-(pyridin-3-ylmethyl)-2-(5-(3-(trifluoromethyl)benzyl)pyridin-2-yl)morpholine]
- inhibition of AKT phosphorylation (pAKT) by agonists ([2]; contractile agonists carbachol or histamine): inactive
- agonist-induced pMLC activation ([1]; contractile agonists carbachol or histamine, FIGS. 6A-6B): inactive

Compound: O=C(CCn1ncc2ccccc21)N1CCOC(c2ccc(Cc3ccc(F)cc3)cn2)C1 (centres unmarked) [compound 1, 1-(2-(5-(4-fluorobenzyl)pyridin-2-yl)morpholino)-3-(1H-indazol-1-yl)propan-1-one]
- activity at 1 µM (ATR/ATRIP(h); compound at 1 μM): 101%
- activity at 10 µM (ATR/ATRIP(h); compound at 10 μM): 91%
- activity at 100 µM (ATR/ATRIP(h); compound at 100 μM): 65%
- activity at 1 µM (Fms(h); compound at 1 μM): 95%
- activity at 10 µM (Fms(h); compound at 10 μM): 94%
- activity at 100 µM (Fms(h); compound at 100 μM): 64%
- activity at 1 µM (IGF-1R(h); compound at 1 μM): 103%
- activity at 10 µM (IGF-1R(h); compound at 10 μM): 91%
- activity at 100 µM (IGF-1R(h); compound at 100 μM): 61%
- MAPKAP-K2 inhibition, dose dependence (MAPKAP-K2(h); 1, 10 and 100 μM): inhibited in a dose-dependent manner
- activity at 1 µM (MAPKAP-K2(h); compound at 1 μM, read-out: MAPKAP-K2(h) kinase activity (human kinase inhibition data)): 90%
- activity at 10 µM (MAPKAP-K2(h); compound at 10 μM, read-out: MAPKAP-K2(h) kinase activity (human kinase inhibition data)): 77%
- activity at 100 µM (MAPKAP-K2(h); compound at 100 μM, read-out: MAPKAP-K2(h) kinase activity (human kinase inhibition data)): 65%
- Aggregate Mean (of raw counts) (PI3Kδ; compound at 1 μM): 16175
- activity at 1 µM (PI3Kδ; compound at 1 μM, read-out: Kinase Activity (%), mean of replicates): 91%
- Raw Counts (PI3Kδ; compound at 1 μM, single replicates): 15209.80926 and 17139.70182
- Kinase Activity (%) (PI3Kδ; compound at 1 μM, single replicates, 1 µM): 86%
- activity at 1 µM (PI3Kδ; compound at 1 μM, single replicates, read-out: Kinase Activity (%)): 95%
- Aggregate Mean (of raw counts) (PI3Kδ; compound at 10 μM): 15960
- activity at 10 µM (PI3Kδ; compound at 10 μM, read-out: Kinase Activity (%), mean of replicates): 92%
- Raw Counts (PI3Kδ; compound at 10 μM, single replicates): 15948.27586 and 15971.06288
- activity at 10 µM (PI3Kδ; compound at 10 μM, single replicates, read-out: Kinase Activity (%)): 92%
- Aggregate Mean (of raw counts) (PI3Kδ; compound at 100 μM): 17900
- activity at 100 µM (PI3Kδ; compound at 100 μM, read-out: Kinase Activity (%), mean of replicates): 83%
- Raw Counts (PI3Kδ; compound at 100 μM, single replicates): 17495.26814 and 18305.46265
- Kinase Activity (%) (PI3Kδ; compound at 100 μM, single replicates, 100 µM): 81%
- activity at 100 µM (PI3Kδ; compound at 100 μM, single replicates, read-out: Kinase Activity (%)): 85%
- PRAK/MAPKAPK5 inhibition, dose dependence (PRAK(h)/MAPKAPK5; 1, 10 and 100 μM): inhibited in a dose-dependent manner
- activity at 1 µM (PRAK(h)/MAPKAPK5; compound at 1 μM, read-out: PRAK(h)/MAPKAPK5 kinase activity (human kinase inhibition data)): 115%
- activity at 10 µM (PRAK(h)/MAPKAPK5; compound at 10 μM, read-out: PRAK(h)/MAPKAPK5 kinase activity (human kinase inhibition data)): 92%
- activity at 100 µM (PRAK(h)/MAPKAPK5; compound at 100 μM, read-out: PRAK(h)/MAPKAPK5 kinase activity (human kinase inhibition data)): 40%
- activity at 1 µM (TrkA(h); compound at 1 μM): 106%
- activity at 10 µM (TrkA(h); compound at 10 μM): 123%
- activity at 100 µM (TrkA(h); compound at 100 μM): 41%
- activity at 1 µM (mTOR(h); compound at 1 μM): 103%
- activity at 10 µM (mTOR(h); compound at 10 μM): 104%
- activity at 100 µM (mTOR(h); compound at 100 μM): 70%
- specificity: effect on the overwhelming majority of the 113 human kinases (113 unique human kinases): little to no effect
- number of kinases exhibiting dose dependent inhibition (113 unique human kinases; of 113 human kinases): 7
- number of kinases with agonism observed (113 unique human kinases; of 113 human kinases, none relevant in human airway smooth muscle): 4
- modulation of Gα12 luciferase reporter signal (agonist/antagonist) (Gα12): inhibition
- pAKT [2, 3]: decreased
- pMLC [1, 4]: decreased
